Reference: patent publication US20220193180A1, “AGING PROGRESSION SUPPRESSING AGENT, AND FOOD OR BEVERAGE PRODUCT COMPRISING SAME” (NITTA GELATIN INC., priority 2019, published 2022)
Where no end group is shown, it is not given here. [ ]: non-standard residue; d: D form. Hyp = O=C(O)[C@@H]1C[C@@H](O)CN1

How the values were obtained:
type 17 collagen gene = experiment: Gene expression test: mRNA level of type 17 collagen gene in epidermal cells (RT-PCR, corrected with GAPDH); type: cell-based, human; parameters: key to Assessment (promoting action on type 17 collagen gene expression): samples with “++” were determined to have a significance in the promoting action on expression of the gene; In samples with “+”, the gene expression increase rate (%) exceeded 100; Samples with “−” were determined to have no significance in the promoting action on expression of the gene; conditions: NHEK cells; for Assessment (promoting action on type 17 collagen gene expression) / Gene expression increase rate (type 17 collagen gene): 1 mM final concentration, 72 hours; for Gene expression increase rate (type 17 collagen gene): control = 100
Description: (§1) First, normal human epidermal keratinocytes NHEK (NB) (manufactured by KURABO INDUSTRIES LTD.) were obtained as epidermal cells. The cells were seeded in a necessary number of commercially available dishes of ϕ60 mm at 1.25×10^4 cells per dish (5 mL of a cell dispersion liquid having a concentration of 0.25×10^4 cells/mL), and cultured in a serum-free medium (trade name: “HuMedia KG-2”, manufactured by KURABO INDUSTRIES LTD.) for 2 days. Then, the cells were confirmed to be subconfluent in the dishes, and the medium in the dishes was then replaced by a basal medium (trade name: “HuMedia KB-2”, manufactured by KURABO INDUSTRIES LTD.). In this way, epidermal cells for evaluating the mRNA level of the type 17 collagen gene and the mRNA level of the glutathione synthetase gene were prepared.
(§2) To the basal medium in the dishes, the peptide or the collagen peptide mixture was added to the concentrations shown in Tables 1 to 4, and the cells were cultured at 37° C. in an atmosphere at a carbon dioxide concentration of 5 vol % for 72 hours to prepare samples to be subjected to a gene expression test. In addition, a control sample obtained by adding only ion-exchanged water to the basal medium in the dish (hereinafter, also referred to as “Blank”) was prepared. This control sample was also cultured at 37° C. in an atmosphere at a carbon dioxide concentration of 5 vol % for 72 hours.
Next, by using a RNA extraction kit (trade name: “TRIzol (registered trademark) Reagent, manufactured by Life Technologies Japan Ltd.) in accordance with the protocol accompanying the kit, total RNA was extracted from the epidermal cells in the dish to obtain an extract containing total RNA for each sample. Subsequently, by using a cDNA preparation kit (trade name (product number): “High Capacity RNA-to-cDNA Kit (4387406)”, manufactured by Life Technologies Japan Ltd.) in accordance with the protocol accompanying the kit, reverse transcription was performed on RNA in the extract to obtain cDNA from the RNA in the extract. Further, real-time (RT)-PCR was performed on the cDNA by a DNA amplifying apparatus (trade name: “Step One Plus (TM) Real-Time PCR System”, manufactured by Applied Biosystems Inc.).
In the RT-PCR, the mRNA levels of type 17 collagen (manufactured by Life Technologies Japan Ltd., primer: Hs009900361_ml) as a target gene and glutathione synthetase (GSS, manufactured by Life Technologies Japan Ltd., primer: Hs01547656_ml) were measured. As an internal standard (correction gene), GAPDH was selected. For calculation of the mRNA level, a calibrated curve method was used. As the primer and the probe for the RT-PCR, those accompanying a reagent kit (trade name: “TaqMan (registered trademark) Gene Expression Assays, manufactured by Applied Biosystems Inc.) were used.
First, in the samples and the control sample, the mRNA levels (gene expression levels) of the two target genes (type 17 collagen and glutathione synthetase) were each calculated. Next, the mRNA levels of the two target genes were corrected with the mRNA level of GAPDH as a correction gene to obtain correction values in the samples and the control sample. Specifically, values obtained by dividing the mRNA levels of the two target genes by the mRNA level of GAPDH (relative values) were each determined.
Then, the ratio of the correction value obtained in each sample to the correction value in the control sample, which was defined as 100, was determined (gene expression increase rate (%)).
Further, the gene expression increase rate (%) was subjected to statistical processing to evaluate significance of the promoting action on gene expression of the type 17 collagen gene and the glutathione synthetase gene in each sample. […]

[1] = system: glutathione synthetase gene; experiment: Gene expression test: mRNA level of glutathione synthetase gene in epidermal cells (RT-PCR, corrected with GAPDH); type: cell-based, human; conditions: NHEK cells, 1 mM final concentration, 72 hours; for Gene expression increase rate (glutathione synthetase gene): control = 100
Description: as §1, §2
Next, by using a RNA extraction kit (trade name: “TRIzol (registered trademark) Reagent, manufactured by Life Technologies Japan Ltd.) in accordance with the protocol accompanying the kit, total RNA was extracted from the epidermal cells in the dish to obtain an extract containing total RNA for each sample. Subsequently, by using a cDNA preparation kit (trade name (product number): “High Capacity RNA-to-cDNA Kit (4387406)”, manufactured by Life Technologies Japan Ltd.) in accordance with the protocol accompanying the kit, reverse transcription was performed on RNA in the extract to obtain cDNA from the RNA in the extract. […]
In the RT-PCR, the mRNA levels of type 17 collagen (manufactured by Life Technologies Japan Ltd., primer: Hs009900361_ml) as a target gene and glutathione synthetase (GSS, manufactured by Life Technologies Japan Ltd., primer: Hs01547656_ml) were measured. […]
First, in the samples and the control sample, the mRNA levels (gene expression levels) of the two target genes (type 17 collagen and glutathione synthetase) were each calculated. […] Specifically, values obtained by dividing the mRNA levels of the two target genes by the mRNA level of GAPDH (relative values) were each determined.
Then, the ratio of the correction value obtained in each sample to the correction value in the control sample, which was defined as 100, was determined (gene expression increase rate (%)). […]

Row | Substance | Assessment (promoting action on type 17 collagen gene expression) (type 17 collagen gene) | Gene expression increase rate (type 17 collagen gene) (type 17 collagen gene) | promoting action on type 17 collagen gene expression (in words) (type 17 collagen gene; discussion of Table 1) | Assessment (promoting action on glutathione synthetase gene expression) [1] | Gene expression increase rate (glutathione synthetase gene) [1]
1 | Glu-Hyp [EO, reference compound] | − | 100 ± 6.46% | did not exhibit an evident promoting action |  | 
2 | Glu-[Hyp]-Gly [EOG] | + (In samples with “+”, the gene expression increase rate (%) exceeded 100) | 144 ± 17.01% |  | + (In samples with “+”, the gene expression increase rate (%) exceeded 100) | 131 ± 10%
3 | Gly-Pro [GP] | ++ | 201 ± 8.42% |  | + (In samples with “+”, the gene expression increase rate (%) exceeded 100) | 106 ± 2%
